Data on 1 substance can be found in patent US20060167229A1, “Biologically active peptide conjugates” (priority 2002, published 2006).

The experiment is described as follows: Body weight of rats on high nutrition diet (over-feeding obesity model). It is filed as in vivo, Sprague-Dawley (SD) rats. The procedure: Healthy rats were fed with high nutrition diet for 5 weeks, with or without simultaneous peptide treatment (intramuscular 300 μg/kg/day). Rats on an ordinary diet with saline injection were used as negative control. After 5 weeks of treatment, injection was stopped and the same diet was maintained for another three weeks. Body weight data was collected at once per week interval. Behaviour of the rats was also observed. […] It is concluded that CMS015 at suitable dosage level can reversibly control obesity development induced by over-feeding.
Sprague-Dawley (SD) rats, weighing 145±10 g, were supplied by the Center of Experimental Animal of Guangzhou University of Traditional Chinese Medicine, PR China (certificate No.: 2000A019). Peptides were custom synthesized (of L-amino acids origin) by American Peptide Company, Inc., USA, and were diluted to 10 μg/ml in normal saline. The high and normal nutrition diets were prepared in compliance with the guideline for pre-clinical research of anti-obesity drug, issued by SDA (State Drug Administration), PR China^[1].
Healthy rats were randomized into the experiment, positive control, and negative control groups. 10 rats per group, half male and half female. The experiment group of rats was fed with high nutrition diet for 5 weeks with simultaneous intramuscular injection of 300 μg/kg/day peptide, once per day. Positive control group received the same high nutrition diet but placebo saline injection, while negative control group, used to proof successful establishment of obesity model, received normal nutrition diet and placebo saline injection. After 5 weeks treatment, injection was stopped and the same diet was maintained for another 3 weeks. The rats were weighed at once per week interval. Behaviour of the rats was also observed.
The data were presented as mean±standard deviation. Paired t test or single-factor ANOVA was used for inter and intra group comparison. Statistical significance cut-off was at P≦0.05.

“Pro Ser Ile Vat Gly Arg Pro Arg His Gln Gly Val Met (PSIVGRPRHQGVM; listed as Sus scrofa) [CMS015]”: the “difference of the treatment and control groups upon termination of peptide treatment” value (300 μg/kg/day i.m. for 5 weeks, then 3 weeks same diet without injection) is “gradually reduced and became statistically insignificant after three weeks”. For the same substance, the body weight amounted to 129.2 ± 3.3 g (Female n = 5, Pre-treatment, positive control 133.6 ± 4.6); 157.8 ± 8.3 g (Female, Week 1, 300 μg/kg/day i.m., high nutrition diet, positive control 164.4 ± 8.7); 176.0 ± 11.2 g (Female, Week 2, 300 μg/kg/day i.m., high nutrition diet, positive control 188.0 ± 6.4); 196.0 ± 10.5 g (Female, Week 3, 300 μg/kg/day i.m., high nutrition diet, positive control 208.8 ± 8.2); 212.0 ± 13.5 g (Female, Week 4, 300 μg/kg/day i.m., high nutrition diet, positive control 227.2 ± 8.2); 221.4 ± 13.2 g (Female, Week 5, 300 μg/kg/day i.m., high nutrition diet, positive control 236.6 ± 10.9). Also, the body weight (Female, Week 6 (injection stopped after week 5), positive control 249.4 ± 16.3) amounted to 235.6 ± 16.3 g; the body weight (Female, Week 7 (injection stopped after week 5), positive control 261.2 ± 13.4) is on record as 242.2 ± 18.8 g; the body weight (Female, Week 8 (injection stopped after week 5), positive control 255.6 ± 11.5) is 252.8 ± 22.5 g; the body weight (Male n = 5, Pre-treatment, positive control 145.6 ± 13.6) is recorded as 145.6 ± 8.5 g; the body weight (Male, Week 1, 300 μg/kg/day i.m., high nutrition diet, positive control 194.4 ± 14.5) is listed as 183.8 ± 10.6 g; the body weight (Male, Week 2, 300 μg/kg/day i.m., high nutrition diet, positive control 239.6 ± 13.4) came out at 220.6 ± 12.2 g. Besides, the body weight (Male, Week 3, 300 μg/kg/day i.m., high nutrition diet, positive control 265.0 ± 11.8) is recorded as 239.0 ± 16.0 g; the body weight (Male, Week 4, 300 μg/kg/day i.m., high nutrition diet, positive control 287.4 ± 17.7) is 258.2 ± 18.1 g; the body weight (Male, Week 5, 300 μg/kg/day i.m., high nutrition diet, positive control 299.4 ± 21.2) came out at 268.8 ± 17.7 g; the body weight (Male, Week 6 (injection stopped after week 5), positive control 333.4 ± 27.1) came to 299.4 ± 21.2 g; the body weight (Male, Week 7 (injection stopped after week 5), positive control 349.2 ± 28.9) is on record as 310.4 ± 25.9 g; the body weight (Male, Week 8 (injection stopped after week 5), positive control 374.4 ± 37.2) is listed as 337.4 ± 30.6 g.
